From patent US20110160196A1, “FACTOR XA INHIBITORS” (Millennium Pharmaceuticals, Inc., priority 2007, published 2011)

molecular target: T1, human plasma protein factor Xa (Homo sapiens, UniProt P00742); test: Factor Xa IC50 determination (cleavage of paranitroanilide substrate S-2765); assay type: biochemical; details: factor Xa 1 nM, S-2765 100 μM, Tris buffered saline pH 7.4, read at 405 nm
T1 construct: The human plasma protein factor Xa was purchased; purchased Haematologic Technologies (Essex Junction, Vt.); host or cells: human plasma
Method in brief: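 Human plasma factor Xa (1 nM) preincubated 5 min at room temperature with inhibitor (0.01 nM–10 μM) in Tris-buffered saline pH 7.4 with 5 mM CaCl2, 0.1% BSA, 5% DMSO. S-2765 added at 100 μM final; pNA release followed at 405 nm for 2 min. IC50 from four-parameter fit of initial velocities.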

T1 sequence (P00742 235-488 limits assumed): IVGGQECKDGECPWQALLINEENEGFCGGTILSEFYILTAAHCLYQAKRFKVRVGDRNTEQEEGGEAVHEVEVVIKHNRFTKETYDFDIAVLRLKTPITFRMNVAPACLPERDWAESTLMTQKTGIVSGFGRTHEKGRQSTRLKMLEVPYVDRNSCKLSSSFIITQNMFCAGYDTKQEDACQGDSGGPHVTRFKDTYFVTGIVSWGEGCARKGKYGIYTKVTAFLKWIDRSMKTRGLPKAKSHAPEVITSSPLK
T1 sequence (P00742 41-179 partner limits assumed): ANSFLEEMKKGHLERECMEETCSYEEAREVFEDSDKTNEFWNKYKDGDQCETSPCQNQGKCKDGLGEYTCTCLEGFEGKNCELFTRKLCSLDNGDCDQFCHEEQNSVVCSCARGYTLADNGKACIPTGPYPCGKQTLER

IC50 [nM] | SMILES
100 to 500 | O=C(NCc1cn(-c2ccc(-n3ccccc3=O)cc2C(=O)N2CCC(O)CC2)nn1)c1ccc(Cl)s1 [Compound 115, 5-Chloro-N-((1-(2-(4-hydroxypiperidine-1-carbonyl)-4-(2-oxopyridin-1(2H)-yl)phenyl)-1H-1,2,3-triazol-4-yl)methyl)thiophene-2-carboxamide]
100 to 500 | NC(=O)C1CCN(C(=O)c2cc(-n3ccccc3=O)ccc2-n2cc(CNC(=O)c3ccc(Cl)s3)nn2)CC1 [Compound 116, 1-(2-(4-((5-Chlorothiophene-2-carboxamido)methyl)-1H-1,2,3-triazol-1-yl)-5-(2-oxopyridin-1(2H)-yl)benzoyl)piperidine-4-carboxamide]
≤ 100 | O=C(NCc1cn(-c2ccc(-n3ccccc3=O)cc2C(=O)NCc2nnn[nH]2)nn1)c1ccc(Cl)s1 [Compound 117, N-((1-(2-(((1H-Tetrazol-5-yl)methyl)carbamoyl)-4-(2-oxopyridin-1(2H)-yl)phenyl)-1H-1,2,3-triazol-4-yl)methyl)-5-chlorothiophene-2-carboxamide]
100 to 500 | O=C(NCc1cn(-c2ccc(-n3ccccc3=O)cc2C(=O)Nc2ccncc2)nn1)c1ccc(Cl)s1 [Compound 118, 5-Chloro-N-((1-(4-(2-oxopyridin-1(2H)-yl)-2-(pyridin-4-ylcarbamoyl)phenyl)-1H-1,2,3-triazol-4-yl)methyl)thiophene-2-carboxamide]
≤ 100 | O=C(NCc1cn(-c2ccc(-n3ccccc3=O)cc2CO)nn1)c1ccc(Cl)s1 [Compound 119, 5-Chloro-N-((1-(2-(hydroxymethyl)-4-(2-oxopyridin-1(2H)-yl)phenyl)-1H-1,2,3-triazol-4-yl)methyl)thiophene-2-carboxamide]
≤ 100 | NCc1cc(-n2ccccc2=O)ccc1-n1cc(CNC(=O)c2ccc(Cl)s2)nn1 [Compound 120, N-((1-(2-(Aminomethyl)-4-(2-oxopyridin-1(2H)-yl)phenyl)-1H-1,2,3-triazol-4-yl)methyl)-5-chlorothiophene-2-carboxamide]
≤ 100 | CN(C)Cc1cc(-n2ccccc2=O)ccc1-n1cc(CNC(=O)c2ccc(Cl)s2)nn1 [Compound 121, 5-Chloro-N-((1-(2-((dimethylamino)methyl)-4-(2-oxopyridin-1(2H)-yl)phenyl)-1H-1,2,3-triazol-4-yl)methyl)thiophene-2-carboxamide]
≤ 100 | O=C(NCc1cn(-c2ccc(-n3ccccc3=O)cc2-c2ccncc2)nn1)c1ccc(Cl)s1 [Compound 125, 5-Chloro-N-((1-(4-(2-oxopyridin-1(2H)-yl)-2-(pyridin-4-yl)phenyl)-1H-1,2,3-triazol-4-yl)methyl)thiophene-2-carboxamide]
≤ 100 | O=C(NCc1cn(-c2ccc(-n3ccccc3=O)cc2-c2cccnc2)nn1)c1ccc(Cl)s1 [Compound 126, 5-Chloro-N-((1-(4-(2-oxopyridin-1(2H)-yl)-2-(pyridin-3-yl)phenyl)-1H-1,2,3-triazol-4-yl)methyl)thiophene-2-carboxamide]
≤ 100 | O=C(NCc1cn(-c2ccc(-n3ccccc3=O)cc2-c2ccnc(Cl)c2)nn1)c1ccc(Cl)s1 [Compound 133, 5-Chloro-N-((1-(2-(2-chloropyridin-4-yl)-4-(2-oxopyridin-1(2H)-yl)phenyl)-1H-1,2,3-triazol-4-yl)methyl)thiophene-2-carboxamide]
≤ 100 | O=C(NCc1cn(-c2ccc(-n3ccccc3=O)cc2-c2ccnc(F)c2)nn1)c1ccc(Cl)s1 [Compound 134, 5-Chloro-N-((1-(2-(2-fluoropyridin-4-yl)-4-(2-oxopyridin-1(2H)-yl)phenyl)-1H-1,2,3-triazol-4-yl)methyl)thiophene-2-carboxamide]
≤ 100 | O=C(NCc1cn(-c2ccc(-n3ccccc3=O)cc2-c2ccc(Cl)nc2)nn1)c1ccc(Cl)s1 [Compound 135, 5-Chloro-N-((1-(2-(6-chloropyridin-3-yl)-4-(2-oxopyridin-1(2H)-yl)phenyl)-1H-1,2,3-triazo1-4-yl)methyl)thiophene-2-carboxamide]
≤ 100 | O=C(NCc1cn(-c2ccc(-n3ccccc3=O)cc2-c2ccnc(O)c2)nn1)c1ccc(Cl)s1 [Compound 137, 5-Chloro-N-((1-(2-(2-hydroxypyridin-4-yl)-4-(2-oxopyridin-1(2H)-yl)phenyl)-1H-1,2,3-triazol-4-yl)methyl)thiophene-2-carboxamide]
≤ 100 | COc1cc(-c2cc(-n3ccccc3=O)ccc2-n2cc(CNC(=O)c3ccc(Cl)s3)nn2)ccn1 [Compound 138, 5-Chloro-N-((1-(2-(2-methoxypyridin-4-yl)-4-(2-oxopyridin-1(2H)-yl)phenyl)-1H-1,2,3-triazol-4-yl)methyl)thiophene-2-carboxamide]
≤ 100 | Nc1cc(-c2cc(-n3ccccc3=O)ccc2-n2cc(CNC(=O)c3ccc(Cl)s3)nn2)ccn1 [Compound 139, N-((1-(2-(2-Aminopyridin-4-yl)-4-(2-oxopyridin-1(2H)-yl)phenyl)-1H-1,2,3-triazol-4-yl)methyl)-5-chlorothiophene-2-carboxamide]
≤ 100 | CN(C)c1cc(-c2cc(-n3ccccc3=O)ccc2-n2cc(CNC(=O)c3ccc(Cl)s3)nn2)ccn1 [Compound 140, 5-Chloro-N-((1-(2-(2-(dimethylamino)pyridin-4-yl)-4-(2-oxopyridin-1(2H)-yl)phenyl)-1H-1,2,3-triazol-4-yl)methyl)thiophene-2-carboxamide]
≤ 100 | CNc1cc(-c2cc(-n3ccccc3=O)ccc2-n2cc(CNC(=O)c3ccc(Cl)s3)nn2)ccn1 [Compound 141, 5-Chloro-N-((1-(2-(2-(methylamino)pyridin-4-yl)-4-(2-oxopyridin-1(2H)-yl)phenyl)-1H-1,2,3-triazol-4-yl)methyl)thiophene-2-carboxamide]
≤ 100 | O=C(NCc1cn(-c2ccc(-n3ccccc3=O)cc2-c2ccc(O)nc2)nn1)c1ccc(Cl)s1 [Compound 142, 5-Chloro-N-((1-(2-(6-hydroxypyridin-3-yl)-4-(2-oxopyridin-1(2H)-yl)phenyl)-1H-1,2,3-triazol-4-yl)methyl)thiophene-2-carboxamide]
≤ 100 | COc1ccc(-c2cc(-n3ccccc3=O)ccc2-n2cc(CNC(=O)c3ccc(Cl)s3)nn2)cn1 [Compound 143, 5-Chloro-N-((1-(2-(6-methoxypyridin-3-yl)-4-(2-oxopyridin-1(2H)-yl)phenyl)-1H-1,2,3-triazol-4-yl)methyl)thiophene-2-carboxamide]
≤ 100 | Nc1ccc(-c2cc(-n3ccccc3=O)ccc2-n2cc(CNC(=O)c3ccc(Cl)s3)nn2)cn1 [Compound 144, N-((1-(2-(6-Aminopyridin-3-yl)-4-(2-oxopyridin-1(2H)-yl)phenyl)-1H-1,2,3-triazol-4-yl)methyl)-5-chlorothiophene-2-carboxamide]
≤ 100 | CN(C)c1ccc(-c2cc(-n3ccccc3=O)ccc2-n2cc(CNC(=O)c3ccc(Cl)s3)nn2)cn1 [Compound 145, 5-Chloro-N-((1-(2-(6-(dimethylamino)pyridin-3-yl)-4-(2-oxopyridin-1(2H)-yl)phenyl)-1H-1,2,3-triazol-4-yl)methyl)thiophene-2-carboxamide]
≤ 100 | CNc1ccc(-c2cc(-n3ccccc3=O)ccc2-n2cc(CNC(=O)c3ccc(Cl)s3)nn2)cn1 [Compound 146, 5-Chloro-N-((1-(2-(6-(methylamino)pyridin-3-yl)-4-(2-oxopyridin-1(2H)-yl)phenyl)-1H-1,2,3-triazol-4-yl)methyl)thiophene-2-carboxamide]
100 to 500 | NC(=O)CCNC(=O)c1cc(-n2ccccc2=O)ccc1-n1cc(CNC(=O)c2ccc(Cl)s2)nn1 [Compound 147, N-((1-(2-(3-Amino-3-oxopropylcarbamoyl)-4-(2-oxopyridin-1(2H)-yl)phenyl)-1H-1,2,3-triazol-4-yl)methyl)-5-chlorothiophene-2-carboxamide]
≤ 100 | O=C(NCc1cn(-c2ccc(-n3ccccc3=O)cc2OCCn2ccnc2)nn1)c1ccc(Cl)s1 [Compound 148, N-((1-(2-(2-(1H-Imidazol-1-yl)ethoxy)-4-(2-oxopyridin-1(2H)-yl)phenyl)-1H-1,2,3-triazol-4-yl)methyl)-5-chlorothiophene-2-carboxamide]
≤ 100 | O=C(NCc1cn(-c2ccc(-n3ccccc3=O)cc2OCCCOC(=O)N2CCOCC2)nn1)c1ccc(Cl)s1 [Compound 150, 3-(2-(4-((5-Chlorothiophene-2-carboxamido)methyl)-1H-1,2,3-triazol-1-yl)-5-(2-oxopyridin-1(2H)-yl)phenoxy)propyl morpholine-4-carboxylate]
≤ 100 | O=C(NCc1cn(-c2ccc(-n3ccccc3=O)cc2Oc2ccccn2)nn1)c1ccc(Cl)s1 [Compound 151, 5-Chloro-N-((1-(4-(2-oxopyridin-1(2H)-yl)-2-(pyridin-2-yloxy)phenyl)-1H-1,2,3-triazol-4-yl)methyl)thiophene-2-carboxamid]
≤ 100 | O=C(O)COc1cc(-n2ccccc2=O)ccc1-n1nnc(CNC(=O)c2ccc(Cl)s2)c1I [Compound 152, 2-(2-(4-((5-Chlorothiophene-2-carboxamido)methyl)-5-iodo-1H-1,2,3-triazol-1-yl)-5-(2-oxopyridin-1(2H)-yl)phenoxy)acetic acid]
100 to 500 | O=C(NCc1nnn(-c2ccc(-n3ccccc3=O)cc2OCCCO)c1I)c1ccc(Cl)s1 [Compound 153, 5-Chloro-N-((1-(2-(3-hydroxypropoxy)-4-(2-oxopyridin-1(2H)-yl)phenyl)-5-iodo-1H-1,2,3-triazol-4-yl)methyl)thiophene-2-carboxamide]
100 to 500 | O=C(NCc1nnn(-c2ccc(-n3ccccc3=O)cc2OC[C@H](O)CO)c1I)c1ccc(Cl)s1 [Compound 154, 5-Chloro-N-((1-(2-((R)-2,3-dihydroxypropoxy)-4-(2-oxopyridin-1(2H)-yl)phenyl)-5-iodo-1H-1,2,3-triazol-4-yl)methyl)thiophene-2-carboxamide]
